Assay results published in US20070066801A1 (priority 2003, published 2007).

Assays:
[1] = tested on: F. tularensis LVS; assay type: binding, Francisella tularensis
[2] = tested on: F. novicida; assay type: binding, Francisella novicida
[3] = tested on: F. novicida; assay type: binding, Francisella novicida; remark: listed apart in the source
[4] = tested on: F. philomiragia; assay type: binding, Francisella philomiragia
[5] = tested on: F. philomiragia; assay type: binding, Francisella philomiragia; remark: listed apart in the source
[6] = tested on: F. tularensis LVS; assay type: binding, Francisella tularensis; remark: listed apart in the source
[7] = tested on: Staphylococcus aureus (ATCC 6538); assay type: binding
[8] = tested on: E. coli DH5α; assay type: binding
[9] = tested on: Enterococcus hirae (ATCC 8043); assay type: binding

LPISNPLPIKRS [SEQ ID NO: 3]
ratio of phage binding to F. tularensis LVS compared to F. philomiragia [1]: no specific binding

SLFWTIPIPSFR [p442S, reference compound]
effect of added peptide on binding of phage 4-4-2 to F. novicida [2]: did not inhibit the binding of phage 4-4-2

TGRHTPWPHFMP [OV1, reference compound]
phage binding to F. novicida in 0.1×PBS [3]: Neither phage expressing peptides having the sequence of SEQ ID NO: 2 (phage 4-4-2) or SEQ ID NO: 4 (OV1 negative control) bound | phage binding to F. novicida in Tris-Mg buffer [3]: equal to or greater than the binding of phage 4-4-2 | ratio of phage binding to F. novicida compared to F. philomiragia [3]: approximately equal binding | effect of trypsin digestion of the bacterial surface on phage binding to F. philomiragia [4]: increase in binding after trypsin treatment | phage binding to F. tularensis LVS in 0.1×PBS [1]: Neither phage expressing peptides having the sequence of SEQ ID NO: 2 (phage 4-4-2) or SEQ ID NO: 4 (OV1 negative control) bound | ratio of phage binding to F. tularensis LVS compared to F. philomiragia [1]: approximately equal binding | phage binding to F. philomiragia in 0.1×PBS [5]: Neither phage expressing peptides having the sequence of SEQ ID NO: 2 (phage 4-4-2) or SEQ ID NO: 4 (OV1 negative control) bound | phage binding to F. philomiragia in 1×PBS buffer [5]: equal to the binding of phage 4-4-2 | phage binding to F. philomiragia in Tris-Mg buffer [5]: equal to or greater than the binding of phage 4-4-2 | effect of trypsin digestion of the bacterial surface on phage binding to F. tularensis LVS [6]: increase in binding after trypsin treatment

TSITPWFFLSRP [p442]
effect of added peptide on binding of phage 4-4-2 to F. novicida [2]: decreased binding of phage 4-4-2

TSITPWFFLSRP [phage 4-4-2]
amount of phage binding to F. novicida in 1×PBS buffer (versus Tris-Mg) [3]: increased | effect of growth on TSB (versus Chamberlain minimal medium) on phage binding to F. novicida [3]: stimulated binding | phage binding to F. novicida in 0.1×PBS [3]: Neither phage expressing peptides having the sequence of SEQ ID NO: 2 (phage 4-4-2) or SEQ ID NO: 4 (OV1 negative control) bound | ratio of phage binding to F. novicida compared to F. philomiragia [3]: > 100 fold | level of binding to S. aureus, fold lower than phage binding to F. novicida and F. tularensis LVS [7]: 20-100 fold | effect of trypsin digestion of the bacterial surface on phage binding to F. philomiragia [4]: small but reproducible increase in binding | level of binding to E. coli, fold lower than phage binding to F. novicida and F. tularensis LVS [8]: 20-100 fold | binding specificity of phage in Tris-Mg buffer [1]: showed specificity for the identification of F. tularensis LVS | effect of growth on TSB (versus Chamberlain minimal medium) on phage binding to F. tularensis LVS [1]: stimulatory effect observed with F. tularensis LVS was not as great | number of phage binding F. tularensis LVS in 1×PBS buffer (versus Tris-Mg) [1]: not decreased significantly | phage binding to F. tularensis LVS in 0.1×PBS [1]: Neither phage expressing peptides having the sequence of SEQ ID NO: 2 (phage 4-4-2) or SEQ ID NO: 4 (OV1 negative control) bound | ratio of phage binding to F. tularensis LVS compared to F. philomiragia [1]: > 100 fold | phage binding to F. philomiragia in 0.1×PBS [5]: Neither phage expressing peptides having the sequence of SEQ ID NO: 2 (phage 4-4-2) or SEQ ID NO: 4 (OV1 negative control) bound | level of binding to E. hirae, fold lower than phage binding to F. novicida and F. tularensis LVS [9]: 20-100 fold | effect of trypsin digestion of the bacterial surface on phage binding to F. tularensis LVS [6]: distinct trypsin sensitivity | phage binding to F. tularensis LVS after trypsin digestion, relative to no trypsin [6]: 10-20%
